Experimental data taken from article PMC5740082, “Identification of a CARM1 Inhibitor with Potent In Vitro and In Vivo Activity in Preclinical Models of Multiple Myeloma” (Scientific Reports, 2017).

Legend:
CARM1 = biological target: T1, CARM1 (Homo sapiens, UniProt Q86X55); assay: CARM1 histone methyltransferase (biochemical) assay
T1 construct: FLAG-CARM1 (amino acids 2–585)-His for biochemical studies was expressed in 293 F mammalian cells; made in house; host or cells: 293F mammalian cells
T1 sequence (Q86X55 2-585 isoform Q86X55-1): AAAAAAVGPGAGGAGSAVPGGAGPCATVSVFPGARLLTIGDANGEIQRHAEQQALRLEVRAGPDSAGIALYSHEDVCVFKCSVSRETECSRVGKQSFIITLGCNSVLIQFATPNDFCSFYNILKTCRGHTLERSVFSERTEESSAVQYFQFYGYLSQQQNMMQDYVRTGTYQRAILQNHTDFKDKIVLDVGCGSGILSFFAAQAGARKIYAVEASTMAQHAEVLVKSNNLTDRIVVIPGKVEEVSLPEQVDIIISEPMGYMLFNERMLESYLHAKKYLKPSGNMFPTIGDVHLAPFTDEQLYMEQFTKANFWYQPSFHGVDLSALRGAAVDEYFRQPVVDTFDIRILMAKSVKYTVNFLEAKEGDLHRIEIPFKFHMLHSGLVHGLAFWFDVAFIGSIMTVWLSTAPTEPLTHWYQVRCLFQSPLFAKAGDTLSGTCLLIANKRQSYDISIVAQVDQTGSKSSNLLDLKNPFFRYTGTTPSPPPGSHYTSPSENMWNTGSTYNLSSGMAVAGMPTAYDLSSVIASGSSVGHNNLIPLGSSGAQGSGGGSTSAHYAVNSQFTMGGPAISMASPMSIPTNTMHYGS
Protocol: CARM1 activity was measured as previously reported for the histone methyltransferases PRMT1/6/8[65] and PRMT5[58]. Briefly, CARM1 was preincubated with compounds for 30 minutes at room temperature before reactions were initiated. […] The assays were quenched by the addition of 300 μM unlabeled SAM. The quantity of ^3H-labeled peptide produced was measured by Flashplate on a Topcount reader. Further details can be found in the Supplementary Methods.
Histone methyltransferase assay
The compounds were preincubated with CARM1 for 30 minutes at room temperature before the reactions were initiated by the addition of substrates. […]
containing 20 mM bicine, 1 mM tris(2-carbox yethyl)phosphine, 0.005% bovine skin gelatin and 0.002% Tween-20, pH 7.5 and 2% DMSO. The peptide sequence was biotin-aminohexanoate- […]
eKS AP-amide, where RMe is a monomethylated arginine residue (21st
Century Biochemicals, Marlboro, MA). After 2 hours, assa ys were quenched b y the addition of 300 μM unlabeled SAM. The reactions were tran sferred to a 384-well Flashplate (Perkin Elmer) and the biotinylated peptides were allowed to bind to the streptavidin surface for at least 1 hour before being washed once with 0.1% Tween 20. The quantit y of 3H-labeled peptide bound to the Flashplate surface was counted on a Topcount reader as counts per minute (cpm). % Inhibition values wer e calculated and IC50 values were fit using the 3 -param eter IC50 equation below:
YY = BBBBBBBBBBBB + (100 − BBBBBBBBBBBB )HHHHHHHH CCCCCCCCCCHHCCHHCCCCCC where top is fixed at 100 or the maximum inhibition plateau , Y is % inhibition and X is […]
IC50 vs [peptide] data were fit to the noncom petitive Cheng- Prusoff […]
The effect of reaction time on compound potency was determined b y meas uring IC50 values from […]
to a one phase exponential deca y equation. […]
activity was measured under standard conditions after a 30 minute preincubation.
IC 50 values were d etermi ned and data wer e anal yz ed using the following eq uation: […]

[1] = system: 55 receptors, ion channels and transporters; assay: ExpresSProfile (CEREP) screen; assay type: binding; conditions: 10 μM
Description: […]. […] […]. […] […].

hERG channel = hERG channel (Homo sapiens, UniProt Q12809); assay: hERG channel current inhibition; assay type: biochemical; conditions: read-out: IC50 against hERG channel current inhibition
Chain of hERG channel (Q12809 whole entry): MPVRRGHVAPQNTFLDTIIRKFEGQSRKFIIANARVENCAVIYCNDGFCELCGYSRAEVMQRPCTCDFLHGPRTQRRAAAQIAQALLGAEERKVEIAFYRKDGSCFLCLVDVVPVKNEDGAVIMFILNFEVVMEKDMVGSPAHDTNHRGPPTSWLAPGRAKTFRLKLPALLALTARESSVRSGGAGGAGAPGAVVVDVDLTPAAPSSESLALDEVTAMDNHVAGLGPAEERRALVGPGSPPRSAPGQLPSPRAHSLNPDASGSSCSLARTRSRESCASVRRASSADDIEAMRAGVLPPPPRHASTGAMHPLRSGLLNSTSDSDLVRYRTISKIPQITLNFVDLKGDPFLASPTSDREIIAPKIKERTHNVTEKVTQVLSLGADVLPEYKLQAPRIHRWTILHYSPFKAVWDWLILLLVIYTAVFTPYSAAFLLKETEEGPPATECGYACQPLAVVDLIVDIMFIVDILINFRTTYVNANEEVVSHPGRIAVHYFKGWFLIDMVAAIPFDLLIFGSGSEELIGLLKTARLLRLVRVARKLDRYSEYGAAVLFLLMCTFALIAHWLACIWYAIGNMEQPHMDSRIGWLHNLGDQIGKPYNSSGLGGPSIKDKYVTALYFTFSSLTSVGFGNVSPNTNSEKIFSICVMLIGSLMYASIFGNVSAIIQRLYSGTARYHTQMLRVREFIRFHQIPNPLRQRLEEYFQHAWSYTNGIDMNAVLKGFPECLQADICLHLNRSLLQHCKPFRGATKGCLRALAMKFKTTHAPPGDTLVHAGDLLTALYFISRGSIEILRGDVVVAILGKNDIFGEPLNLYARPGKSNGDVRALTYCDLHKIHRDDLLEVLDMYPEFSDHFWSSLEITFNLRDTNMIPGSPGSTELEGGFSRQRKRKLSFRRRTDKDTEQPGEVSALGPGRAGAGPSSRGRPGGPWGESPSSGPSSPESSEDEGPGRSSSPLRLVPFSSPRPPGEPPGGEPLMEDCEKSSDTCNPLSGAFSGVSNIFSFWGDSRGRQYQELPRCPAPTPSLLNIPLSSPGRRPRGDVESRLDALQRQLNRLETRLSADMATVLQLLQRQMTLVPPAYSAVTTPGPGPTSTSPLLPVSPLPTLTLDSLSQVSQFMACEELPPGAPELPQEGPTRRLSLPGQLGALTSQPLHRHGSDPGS

CNC[C@@H](O)COc1ccc(Cl)c(-c2nc(-c3c(C)noc3C)c(C)c(N3CC4(CCN(C(=O)OC)CC4)C3)n2)c1 [EZM2302]
α value (dual inhibitor study with SAH) (CARM1; varying EZM2302 and SAH): 0.2
α (noncompetitive fit, substrate competition) (CARM1; varying peptide concentrations): 0.2
inhibition or stimulation in any of the assays except KOP receptor [1]: ≤ 40%
IC50 (hERG channel): > 100 µM
